For 23 compounds, TGI and GI50 results are on record in PubChem BioAssay (NCI).

SMILES strings stand for the structures. “And” between values parts separate entries of the source, which are not always exact repeats. Identical values can stand only once.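 Following 48 hours of exposure in 96-well plates, responses at five concentrations were used to interpolate endpoints linearly. Here, GI50 denotes the concentration required for 50% inhibition of growth. Definition used: TGI = concentration required for complete inhibition of growth.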

The first assay relates to OVCAR-3 ovarian. The experiment in a line: NCI anticancer screen, dose series, 48 h.
In the case of `CC1=NN(c2ccc(S(=O)(=O)O)cc2)C2(C1)SCC(=O)N2c1nc2ccccc2s1` (stereo not given), the TGI is over 100 µM.

`C[C@H](N)C(=O)Nc1ccc(-c2nc3ccccc3s2)cc1`: the TGI worked out at 36.9 µM.

The compound `CC(=O)O[C@H]1C#C/C=C\C#CC[C@@H]2C(=O)N[C@@H]12` displayed a TGI of over 100 µM.

With `Cc1ccc2c(c1)[nH]c1cc(C(F)(F)F)ccc1[p+]2=O` (stereo not given), the TGI is over 100 µM.

Turning to `CN(O)C(=O)c1cccc(Cl)c1`, the TGI was over 100 µM.

The compound `CCOP(=O)(OCC)c1c(C(=O)OC)cc(=O)[nH]c1-c1ccc(C)cc1` registered a TGI of 25.2 µM.

For `COC(=O)C1=C(C(=O)OC)SC2(S1)C1=C(CCCC1)SC(C(=O)OC)=C2C(=O)OC`, the TGI was 18.9 µM.

With `C1CCC2C(C1)CCCC2NC1=NCCO1` (stereo not given), the TGI is over 100 µM.

As for `CCC1(C)N=C(c2cnccn2)NN1c1ccc(Cl)cc1` (stereo not given), the TGI was over 100 µM.

On to `C/C=C/C(O)P1(=O)N(Cc2ccccc2)[C@@H]2CCCC[C@H]2N1Cc1ccccc1` (stereo not given in full), for which the TGI is over 25 µM.

The test system of the next assay is RXF 393 renal. As to the kind of experiment: NCI anticancer screen, dose series, 48 h.
`NC(=O)NNC(=O)c1nc[nH]c1[N+](=O)[O-]` yielded a TGI of over 100 µM.

Compound `O=c1[nH]/c(=C/c2ccc(OCc3ccccc3)cn2)c(=O)[nH]/c1=C/c1ccc(O)cc1` yielded a TGI of 7.38 µM.

For the compound `N#C/C(=C\n1ccc(=O)[nH]c1=S)C(N)=O`, the TGI is over 100 µM.

The compound `Cc1ccc(/C(O)=C/C(=O)C(=O)/C=C(\O)c2ccc(C)cc2C)c(C)c1` displayed a TGI of 4.22 µM.

`Cc1ccc([C@H]2CC(=O)C[C@H](c3ccc(C)cc3)C23C(=O)c2ccccc2C3=O)cc1` came in with a TGI of 39 µM.

With `O=c1c2ncn(COCCCl)c2n(-c2ccccc2)c(=S)n1-c1ccccc1`, the TGI was over 100 µM.

`O=C(O)c1ccc(S(=O)(=O)c2ccccc2[N+](=O)[O-])cc1` came in with a TGI of over 10 µM.

`COc1ccc(/C=N/N=C(\N)NO)c(O)c1` came in with a TGI of over 10 µM.

Regarding `COC(=O)C1=CC(=O)OC1(OO)c1ccccc1` (stereo not given), the TGI is over 100 µM.

Regarding `O=C1NC(N/N=C/C(O)C(O)C(O)CO)=N/C1=C\c1ccco1` (stereo not given), the TGI is over 100 µM.

In the case of `COc1cc(CNc2ccc(SC)cc2)cc(OC)c1OC`, the GI50 is 2.27 µM and 6.5 µM; the TGI was 39.6 µM and 42.7 µM.

On to `CN(NC(=O)c1cccs1)C1=NCCCN1`, for which the TGI was over 100 µM.

`CCCCCC(=O)NC(=S)Nc1nn[nH]n1` came in with a TGI of over 100 µM.

In turn, `CC1=NN(c2ccc(S(=O)(=O)O)cc2)C2(C1)SCC(=O)N2c1nc2ccccc2s1` (stereo not given) registered a TGI of over 100 µM.

For the compound `C[C@H](N)C(=O)Nc1ccc(-c2nc3ccccc3s2)cc1`, the TGI was over 100 µM.

Turning to `CC(=O)O[C@H]1C#C/C=C\C#CC[C@@H]2C(=O)N[C@@H]12`, the TGI came out at 73.3 µM.

Compound `Cc1ccc2c(c1)[nH]c1cc(C(F)(F)F)ccc1[p+]2=O` (stereo not given) gave a TGI of over 100 µM.

`CN(O)C(=O)c1cccc(Cl)c1`: the TGI is over 100 µM.

In the case of `CCOP(=O)(OCC)c1c(C(=O)OC)cc(=O)[nH]c1-c1ccc(C)cc1`, the TGI is 27.3 µM.

In turn, `COC(=O)C1=C(C(=O)OC)SC2(S1)C1=C(CCCC1)SC(C(=O)OC)=C2C(=O)OC` yielded a TGI of 6.91 µM.

Compound `C1CCC2C(C1)CCCC2NC1=NCCO1` (stereo not given) displayed a TGI of over 100 µM.

`CCC1(C)N=C(c2cnccn2)NN1c1ccc(Cl)cc1` (stereo not given) returned a TGI of over 100 µM.

Consider `C/C=C/C(O)P1(=O)N(Cc2ccccc2)[C@@H]2CCCC[C@H]2N1Cc1ccccc1` (stereo not given in full), for which the TGI is over 25 µM.

In the next assay the test system is SK-MEL-28 melanoma. The experiment in a line: NCI anticancer screen, dose series, 48 h.
`NC(=O)NNC(=O)c1nc[nH]c1[N+](=O)[O-]` registered a TGI of over 100 µM.

Compound `O=c1[nH]/c(=C/c2ccc(OCc3ccccc3)cn2)c(=O)[nH]/c1=C/c1ccc(O)cc1` came in with a TGI of over 100 µM.

As to `N#C/C(=C\n1ccc(=O)[nH]c1=S)C(N)=O`, the TGI is over 100 µM.

With `Cc1ccc(/C(O)=C/C(=O)C(=O)/C=C(\O)c2ccc(C)cc2C)c(C)c1`, the TGI was found to be 3.84 µM.

`Cc1ccc([C@H]2CC(=O)C[C@H](c3ccc(C)cc3)C23C(=O)c2ccccc2C3=O)cc1` came in with a TGI of over 100 µM.

On to `O=c1c2ncn(COCCCl)c2n(-c2ccccc2)c(=S)n1-c1ccccc1`, for which the TGI is over 100 µM.

`O=C(O)c1ccc(S(=O)(=O)c2ccccc2[N+](=O)[O-])cc1` registered a TGI of over 10 µM.

As to `COc1ccc(/C=N/N=C(\N)NO)c(O)c1`, the TGI is over 10 µM.

As for `COC(=O)C1=CC(=O)OC1(OO)c1ccccc1` (stereo not given), the TGI was over 100 µM.

`O=C1NC(N/N=C/C(O)C(O)C(O)CO)=N/C1=C\c1ccco1` (stereo not given) gave a TGI of over 100 µM.

For `COc1cc(CNc2ccc(SC)cc2)cc(OC)c1OC`, the GI50 was 23.7 µM and 5.71 µM; the TGI is 99.4 µM and > 76.9 µM.

For the compound `CN(NC(=O)c1cccs1)C1=NCCCN1`, the TGI is over 100 µM.

Compound `CCCCCC(=O)NC(=S)Nc1nn[nH]n1` returned a TGI of over 100 µM.

As to `CC1=NN(c2ccc(S(=O)(=O)O)cc2)C2(C1)SCC(=O)N2c1nc2ccccc2s1` (stereo not given), the TGI is over 100 µM.

`C[C@H](N)C(=O)Nc1ccc(-c2nc3ccccc3s2)cc1`: the TGI came out at 32.5 µM.

Take `CC(=O)O[C@H]1C#C/C=C\C#CC[C@@H]2C(=O)N[C@@H]12`: the TGI was over 100 µM.

For `Cc1ccc2c(c1)[nH]c1cc(C(F)(F)F)ccc1[p+]2=O` (stereo not given), the TGI is over 100 µM.

Turning to `CN(O)C(=O)c1cccc(Cl)c1`, the TGI is over 100 µM.

Take `CCOP(=O)(OCC)c1c(C(=O)OC)cc(=O)[nH]c1-c1ccc(C)cc1`: the TGI was 34.7 µM.

Consider `COC(=O)C1=C(C(=O)OC)SC2(S1)C1=C(CCCC1)SC(C(=O)OC)=C2C(=O)OC`, for which the TGI turned out to be 22.5 µM.

With `C1CCC2C(C1)CCCC2NC1=NCCO1` (stereo not given), the TGI is over 100 µM.

With `CCC1(C)N=C(c2cnccn2)NN1c1ccc(Cl)cc1` (stereo not given), the TGI was over 100 µM.

In turn, `C/C=C/C(O)P1(=O)N(Cc2ccccc2)[C@@H]2CCCC[C@H]2N1Cc1ccccc1` (stereo not given in full) gave a TGI of over 25 µM.

The next assay relates to SK-OV-3 ovarian. As to the kind of experiment: NCI anticancer screen, dose series, 48 h.
For `NC(=O)NNC(=O)c1nc[nH]c1[N+](=O)[O-]`, the TGI was over 100 µM.

For the compound `O=c1[nH]/c(=C/c2ccc(OCc3ccccc3)cn2)c(=O)[nH]/c1=C/c1ccc(O)cc1`, the TGI was over 100 µM.

Take `N#C/C(=C\n1ccc(=O)[nH]c1=S)C(N)=O`: the TGI is over 100 µM.

Consider `Cc1ccc(/C(O)=C/C(=O)C(=O)/C=C(\O)c2ccc(C)cc2C)c(C)c1`, for which the TGI stood at 3.47 µM.

`Cc1ccc([C@H]2CC(=O)C[C@H](c3ccc(C)cc3)C23C(=O)c2ccccc2C3=O)cc1` gave a TGI of over 100 µM.

Compound `O=c1c2ncn(COCCCl)c2n(-c2ccccc2)c(=S)n1-c1ccccc1` gave a TGI of over 100 µM.

`O=C(O)c1ccc(S(=O)(=O)c2ccccc2[N+](=O)[O-])cc1` had a TGI of over 10 µM.
